{"source": "patent US20220288156A1", "about": "“TREATMENT” (QUEEN MARY UNIVERSITY OF LONDON, priority 2019, published 2022)", "key": {"[1]": {"test_system": "AAC model of heart failure", "assay": "Cardiac blood vessel density (CD31 immunostaining) in AAC model", "type": "in vivo, mouse", "settings": "ldCil for 3 weeks", "text": "Male C57BL6 mice (Charles River) underwent AAC surgery at 4-5 weeks of age (between 20 and 22 g). Mice were anaesthetised with isoflurane, placed in a supine position on the procedure table, and an incision made along the ventral underbelly, extending from the xiphoid process of the sternum, down to the groin to reveal the abdominal muscle. The abdominal muscle was then cut the same distance along the linea alba to allow easy reattachment of the two halves. The two sides of the abdominal muscles were clipped back to reveal the abdominal gastrointestinal organs, and these were carefully manoeuvred to expose the underlying abdominal aorta. […] Hearts were halved longitudinally and either snap frozen in liquid nitrogen (for immunohistochemistry) or stored in an RNA later stabilisation solution (for RT-quantitative PCR) (ThermoFisher Scientific, Hertfordshire, UK).\nFor anti-CD31 (BD Bioscience) detection, 5 μm snap-frozen sections were blocked in 5% normal goat serum in PBS for 1 h, followed by incubation with anti-CD31 primary antibody (clone H-3, sc-376764, Santa Cruz, 1:100) in blocking buffer (5% normal goat serum in PBS) for 2 h at room temperature. […] To quantify cardiac blood vessel density, the number of CD31-positive blood vessels present across an entire area of abdominally-orientated cardiac tissue was counted within a field of view taken at 40× magnification. […]"}, "[2]": {"test_system": "AngII-stressed mouse cardiomyocytes", "assay": "Western blot of TCA cycle enzymes in AngII-stressed cardiomyocytes", "type": "cell-based", "settings": "Western blot densitometry", "protocol": "Following 5 days culture at 37° C., 5% CO2, primary mouse cardiomyocytes were serum starved for 24 h in a 0.5 FBS-DMEM media. On day 6 cells were washed and refed with complete cardiomyocyte growth medium plus or minus 1 μM angiotensin II (Alfa Aesar), and this was repeated on day 7. In tandem to angiotensin II treatment, cells were either treated with vehicle or low dose Cilengitide (20 nM) (Bachem). On 8-day cardiomyocytes were lysed for RNA analysis.\nCardiomyocytes were prepared and treated as above. At the end of the experiment, cells were lysed with RIPA buffer for 10 min on ice and the cell debris pelleted by centrifugation of the lysate at 9300 g for 10 min at 4° C. Protein concentration was determined from the cell supernatant and 20 μg protein loaded onto 10% gels. Membranes were probed for succinate dehydrogenase (Abcam, ab178423), pyruvate dehydrogenase (Abcam, ab131263), aconitase (Abcam, ab129069) and GAPDH (Millipore, AB2302). Densitometric readings of band intensities were obtained using the JmageJ™ software."}, "[3]": {"test_system": "mouse cardiac endothelial cells", "assay": "RNA-Seq of cardiac endothelial cells treated with ldCil", "type": "cell-based", "quoted_text": "Primary mouse endothelial cells were isolated from the whole hearts of C57/BL6 3-7 day old mice. Hearts were removed, mechanically minced with scissors, and digested in pre-heated (37° C.) 10 ml 0.1% collagenase type I solution (Gibco Invitrogen) for 1 h. Usually 3 hearts were minced together for a single prep. The collagenase reaction was stopped by adding equal parts mouse lung endothelial cell (MLEC) media, and the digested tissue was homogenised in a dish by syringing up to 30 times with a 19 and 21-gauge needle, and then passed through a 70 μm pore-size cell strainer. Cells were centrifuged at 1500 rpm for 3 min, pellet was suspended and then incubated in a solution containing magnetic beads conjugated to a CD31 antibody (BD Pharmingen) to separate primary cardiac endothelial cells from the total cell population. Sorted cells were plated in T25 flasks coated with 0.1% gelatin, 10 μ/ml fibronectin and 30 μ/ml bovine collagen, suspended in mouse lung endothelial cell culture (MLEC) media and incubated at 37° C., 5% CO2. Cells were washed 3 or 4 times in PBS the next day to remove excess red blood cells and other cell-debris and growing medium applied. […]\nRNA-Seq was performed by Barts and the London Genome Centre on the Illumina NextSeq 500 platform, generating on average ˜15-17 million paired-end reads of 76 bp in length per sample. After quality check using FastQC, raw reads were mapped to the mouse genome (mm10, Genome Reference Consortium GRCm38) in the strand-specific mode using HISAT2 (65). Number of uniquely aligned reads (q>10) to the exonic region of each gene were counted using HTSeq (66) based on the GenCode annotation version M16 (Ensembl v91). Only genes that achieved at least one read count per million reads (cpm) in at least four samples (i.e., number of samples per group) were kept. Conditional quantile normalisation (cqn) was then performed accounting for gene length and GC content, and a log2 transformed reads per kilobase of transcript per million mapped reads RPKM expression matrix was subsequently generated. […]"}, "[4]": {"assay": "Mean arterial blood pressure in AAC model", "type": "in vivo, mouse", "settings": "intervention mode; 6 weeks post-AAC surgery", "protocol": "Blood pressure was recorded in anaesthetised mice via intra-arterial cannulation of a carotid artery 6 weeks post-AAC surgery, using a Microtip pressure catheter (Millar instruments). Mice were placed in a supine position on a pre-warmed heating mat (46° C.), and a midline incision made extending the length of the neck with surgical scissors. The large salivary glands were gently moved laterally, and a single carotid artery was located for cannulation. The carotid artery was blunt dissected to remove visceral fats, and then ligated with surgical suture at its most rostral and caudal ends, leaving a space of roughly 2 mm in between. A small incision was made between the two ties using fine dissection spring-tip scissors, and a microtip pressure catheter was inserted into the artery. The region of the artery housing the catheter was tied in place, and the caudal tie loosened to allow blood flow into the pressure catheter. Mice were allowed to recover for 5 min, or until the blood pressure trace steadied. MABP was then averaged across a 30 s period using MATLAB analysis. All efforts were made to ensure mouse body temperature, and levels of anaesthesia in particular, remained constant between animals."}}}
{"compound": "CC(C)[C@H]1C(=O)N[C@@H](CCCN=C(N)N)C(=O)NCC(=O)N[C@@H](CC(=O)O)C(=O)N[C@H](Cc2ccccc2)C(=O)N1C", "note": "[Cilengitide, c(f*VRGD)]", "values": [{"measurement": "cardiac blood vessel density", "setting": "[1]; AAC surgery", "value": "significantly enhanced"}, {"measurement": "cardiac blood vessel density", "setting": "[1]; SHAM surgery", "value": "no significant effect"}, {"measurement": "pyruvate dehydrogenase protein expression", "setting": "[2]", "value": "rescues the elevated expression"}, {"measurement": "concordantly differentially expressed genes", "setting": "[3]; 24 h and 48 h ldCil treatment vs control", "value": 54, "unit": "genes"}, {"measurement": "expression of proangiogenic or cardioprotective regulators (Csf2rb, Eln, Nov, CCL7, Mt2, Socs2, Fgf23, Slc30a1, Col6a3, Mt1, Ggt5, Adam8)", "setting": "[3]; both 24 h and 48 h", "value": "differentially upregulated"}, {"measurement": "gene sets involved in mitosis, DNA repair and cell cycle (enrichment analysis)", "setting": "[3]; both timepoints", "value": "significant increases"}, {"measurement": "mean arterial blood pressure (MABP)", "setting": "[4]", "value": "not affected"}]}
